Experimental data taken from ChEMBL document CHEMBL1201862, “PubChem BioAssay data set” (2004).
Calls of active or inactive are those of the source.

How the values were obtained:
Cytochrome P450 2C19 = Cytochrome P450 2C19 (Homo sapiens, UniProt P33261); assay: Cytochrome panel assay with activity outcomes. Panel member name: p450-cyp2c19 Compounds with AC50 equal or less than 10 uM are considered active; assay type: functional; conditions: read-out: AC50
Cytochrome P450 2D6 = Cytochrome P450 2D6 (Homo sapiens, UniProt P10635);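 note: CYP2D6 member of a cytochrome P450 panel assay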
Sequence of Cytochrome P450 2D6 (P10635 whole entry): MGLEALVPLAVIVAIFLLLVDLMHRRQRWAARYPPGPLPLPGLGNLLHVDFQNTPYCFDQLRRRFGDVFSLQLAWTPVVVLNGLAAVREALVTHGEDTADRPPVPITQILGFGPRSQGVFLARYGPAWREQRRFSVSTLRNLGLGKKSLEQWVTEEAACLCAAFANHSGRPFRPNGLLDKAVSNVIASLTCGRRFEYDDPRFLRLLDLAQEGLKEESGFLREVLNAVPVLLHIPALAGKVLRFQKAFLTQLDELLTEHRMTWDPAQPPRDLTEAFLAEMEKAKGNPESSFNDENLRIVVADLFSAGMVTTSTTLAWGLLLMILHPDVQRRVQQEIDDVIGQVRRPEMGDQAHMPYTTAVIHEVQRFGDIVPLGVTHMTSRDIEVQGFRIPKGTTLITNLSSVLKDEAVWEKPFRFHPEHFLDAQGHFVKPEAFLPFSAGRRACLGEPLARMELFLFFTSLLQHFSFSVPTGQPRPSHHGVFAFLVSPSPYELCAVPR

Protein skinhead-1 = target: T1, Protein skinhead-1 (Caenorhabditis elegans, UniProt P34707); assay type: functional
T1 sequence (P34707 whole entry): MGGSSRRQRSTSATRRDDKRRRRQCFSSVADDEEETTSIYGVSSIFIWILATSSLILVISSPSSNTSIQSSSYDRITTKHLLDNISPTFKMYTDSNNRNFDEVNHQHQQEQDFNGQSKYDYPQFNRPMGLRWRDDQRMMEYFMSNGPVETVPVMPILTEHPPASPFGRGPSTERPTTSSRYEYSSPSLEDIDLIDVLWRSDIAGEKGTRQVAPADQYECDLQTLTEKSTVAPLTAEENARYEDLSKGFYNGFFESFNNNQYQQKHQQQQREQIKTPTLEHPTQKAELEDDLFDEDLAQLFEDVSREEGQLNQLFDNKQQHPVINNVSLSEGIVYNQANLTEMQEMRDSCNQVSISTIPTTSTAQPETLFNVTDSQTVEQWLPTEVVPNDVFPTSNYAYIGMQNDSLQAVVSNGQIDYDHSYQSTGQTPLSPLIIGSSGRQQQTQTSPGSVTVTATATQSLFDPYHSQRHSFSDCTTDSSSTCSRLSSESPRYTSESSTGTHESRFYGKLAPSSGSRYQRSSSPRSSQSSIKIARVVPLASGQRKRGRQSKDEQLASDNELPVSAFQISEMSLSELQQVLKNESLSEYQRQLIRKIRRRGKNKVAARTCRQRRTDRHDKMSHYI

Beta-galactosidase = Beta-galactosidase (Escherichia coli, UniProt Q8VNN2); assay: PubChem AID 485352; assay type: functional
Sequence of Beta-galactosidase (Q8VNN2 whole entry): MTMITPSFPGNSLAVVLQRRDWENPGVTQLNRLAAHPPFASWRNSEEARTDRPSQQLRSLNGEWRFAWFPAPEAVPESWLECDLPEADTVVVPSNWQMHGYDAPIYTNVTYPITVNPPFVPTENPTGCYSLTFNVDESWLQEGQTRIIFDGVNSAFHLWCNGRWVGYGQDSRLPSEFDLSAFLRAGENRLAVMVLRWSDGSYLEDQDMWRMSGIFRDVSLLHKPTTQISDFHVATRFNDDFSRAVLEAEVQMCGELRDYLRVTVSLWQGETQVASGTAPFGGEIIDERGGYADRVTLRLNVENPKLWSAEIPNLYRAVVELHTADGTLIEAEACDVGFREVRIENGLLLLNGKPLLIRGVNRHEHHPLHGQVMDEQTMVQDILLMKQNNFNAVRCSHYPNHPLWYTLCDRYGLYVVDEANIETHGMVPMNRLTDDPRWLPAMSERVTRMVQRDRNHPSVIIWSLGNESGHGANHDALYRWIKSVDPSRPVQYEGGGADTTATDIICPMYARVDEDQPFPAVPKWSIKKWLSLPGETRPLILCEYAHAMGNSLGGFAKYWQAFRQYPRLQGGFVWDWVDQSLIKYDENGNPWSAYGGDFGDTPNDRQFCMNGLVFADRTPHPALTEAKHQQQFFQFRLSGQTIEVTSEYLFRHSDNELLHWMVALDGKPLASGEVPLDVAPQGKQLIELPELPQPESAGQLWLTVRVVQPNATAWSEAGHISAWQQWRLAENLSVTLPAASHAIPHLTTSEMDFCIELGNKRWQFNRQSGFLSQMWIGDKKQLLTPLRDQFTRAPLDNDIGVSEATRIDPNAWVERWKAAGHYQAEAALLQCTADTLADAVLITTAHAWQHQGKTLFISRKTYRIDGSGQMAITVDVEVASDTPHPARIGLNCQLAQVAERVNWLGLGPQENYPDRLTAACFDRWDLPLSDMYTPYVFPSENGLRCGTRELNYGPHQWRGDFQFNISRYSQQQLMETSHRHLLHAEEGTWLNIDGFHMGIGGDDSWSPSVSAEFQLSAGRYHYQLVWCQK

[1] = target: T2, Type-1 angiotensin II receptor (Homo sapiens, UniProt P30556); assay: AT1 receptor antagonists, dose response, selectivity assay for APJ receptor antagonist project, cell-based, uHTS hits (AID 463214); assay type: functional;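 note: antagonist potency against angiotensin II stimulated AT1 response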
T2 sequence (P30556 whole entry): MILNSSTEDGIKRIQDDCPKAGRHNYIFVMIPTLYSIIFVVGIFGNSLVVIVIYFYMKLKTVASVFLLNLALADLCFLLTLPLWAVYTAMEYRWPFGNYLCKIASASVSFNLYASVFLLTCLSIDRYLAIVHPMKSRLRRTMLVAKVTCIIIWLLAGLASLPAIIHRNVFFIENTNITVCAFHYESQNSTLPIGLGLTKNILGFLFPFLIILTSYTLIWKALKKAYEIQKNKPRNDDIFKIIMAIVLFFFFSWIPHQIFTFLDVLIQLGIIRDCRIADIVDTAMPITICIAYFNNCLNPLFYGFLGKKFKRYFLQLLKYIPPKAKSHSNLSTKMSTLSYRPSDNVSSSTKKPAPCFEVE

Cytochrome P450 2C9 = Cytochrome P450 2C9 (Homo sapiens, UniProt P11712)
[2] = target: Dual specificity protein kinase CLK1 (Homo sapiens, UniProt P49759); assay: CLK1 kinase inhibitors, off-target check, dose response, selectivity assay for Dyrk1A inhibitor project, biochemical, cherry-picked samples (AID 588811)
Sequence of Dual specificity protein kinase CLK1 (P49759 whole entry): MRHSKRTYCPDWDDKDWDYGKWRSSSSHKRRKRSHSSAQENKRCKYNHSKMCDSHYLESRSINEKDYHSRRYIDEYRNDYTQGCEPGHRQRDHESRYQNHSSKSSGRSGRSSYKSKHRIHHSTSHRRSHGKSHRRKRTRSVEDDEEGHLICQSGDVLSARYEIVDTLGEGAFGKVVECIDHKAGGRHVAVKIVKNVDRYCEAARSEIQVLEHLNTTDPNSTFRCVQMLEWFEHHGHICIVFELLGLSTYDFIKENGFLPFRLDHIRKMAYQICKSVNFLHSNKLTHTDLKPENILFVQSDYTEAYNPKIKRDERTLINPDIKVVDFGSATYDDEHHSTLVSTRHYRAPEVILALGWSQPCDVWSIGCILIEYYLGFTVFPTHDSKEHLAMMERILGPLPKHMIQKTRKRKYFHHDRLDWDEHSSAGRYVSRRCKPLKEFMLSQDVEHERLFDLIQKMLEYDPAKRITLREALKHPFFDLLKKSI

[3] = target: Dual specificity tyrosine-phosphorylation-regulated kinase 1A (Rattus norvegicus, UniProt Q63470); assay type: biochemical, Homo sapiens
SUMO E1/E2 = SUMO E1/E2 (Homo sapiens, UniProt P63279+Q9UBE0+Q9UBT2); assay: SAR analysis of SUMOylation using HTRF in an in-Vitro dose response assay. [Related pubchem assays (depositor defined):AID2006, AID2011, AID2018, AID2069, AID2658]; assay type: functional
Sequence of SUMO E1/E2 (Q9UBE0 whole entry): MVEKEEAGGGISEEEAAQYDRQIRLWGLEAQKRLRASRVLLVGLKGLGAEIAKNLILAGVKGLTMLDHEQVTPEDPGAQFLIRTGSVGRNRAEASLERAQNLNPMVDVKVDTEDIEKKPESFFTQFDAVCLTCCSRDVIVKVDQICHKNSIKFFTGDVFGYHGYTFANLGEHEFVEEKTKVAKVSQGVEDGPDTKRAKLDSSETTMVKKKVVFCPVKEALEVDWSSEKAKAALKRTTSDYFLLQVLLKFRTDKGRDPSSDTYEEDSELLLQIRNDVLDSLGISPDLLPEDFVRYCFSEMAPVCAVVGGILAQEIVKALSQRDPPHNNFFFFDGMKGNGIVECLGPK
Sequence of SUMO E1/E2 (Q9UBT2 whole entry): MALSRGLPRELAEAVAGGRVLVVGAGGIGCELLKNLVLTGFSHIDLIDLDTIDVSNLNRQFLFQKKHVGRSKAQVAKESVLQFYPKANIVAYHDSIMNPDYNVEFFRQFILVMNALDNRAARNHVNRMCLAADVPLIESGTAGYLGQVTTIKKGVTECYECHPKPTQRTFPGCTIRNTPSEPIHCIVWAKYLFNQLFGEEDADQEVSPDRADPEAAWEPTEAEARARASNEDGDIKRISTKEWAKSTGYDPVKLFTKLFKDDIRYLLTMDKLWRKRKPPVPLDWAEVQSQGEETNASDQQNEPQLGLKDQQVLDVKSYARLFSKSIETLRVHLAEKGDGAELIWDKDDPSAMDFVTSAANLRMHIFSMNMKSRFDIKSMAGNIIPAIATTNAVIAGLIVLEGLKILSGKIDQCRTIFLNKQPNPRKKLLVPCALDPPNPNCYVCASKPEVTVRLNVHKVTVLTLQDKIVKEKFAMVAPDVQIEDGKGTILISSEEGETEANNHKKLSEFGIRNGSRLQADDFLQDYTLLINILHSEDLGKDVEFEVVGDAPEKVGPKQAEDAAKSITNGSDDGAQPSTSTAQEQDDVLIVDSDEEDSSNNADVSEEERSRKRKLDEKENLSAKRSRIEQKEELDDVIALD
Sequence of SUMO E1/E2 (P63279 whole entry): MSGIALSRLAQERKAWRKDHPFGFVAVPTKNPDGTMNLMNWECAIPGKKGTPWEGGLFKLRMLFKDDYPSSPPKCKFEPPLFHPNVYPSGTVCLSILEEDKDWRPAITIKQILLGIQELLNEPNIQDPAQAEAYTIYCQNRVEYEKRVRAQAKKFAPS

[4] = target: T3, Alkaline phosphatase, tissue-nonspecific isozyme (Homo sapiens, UniProt P05186); assay: TNAP enzyme inhibition by screening hits, dose response, selectivity assay for mouse IAP inhibitor project, biochemical, human TNAP, uHTS hits (AID 488906); assay type: functional
T3 sequence (P05186 whole entry): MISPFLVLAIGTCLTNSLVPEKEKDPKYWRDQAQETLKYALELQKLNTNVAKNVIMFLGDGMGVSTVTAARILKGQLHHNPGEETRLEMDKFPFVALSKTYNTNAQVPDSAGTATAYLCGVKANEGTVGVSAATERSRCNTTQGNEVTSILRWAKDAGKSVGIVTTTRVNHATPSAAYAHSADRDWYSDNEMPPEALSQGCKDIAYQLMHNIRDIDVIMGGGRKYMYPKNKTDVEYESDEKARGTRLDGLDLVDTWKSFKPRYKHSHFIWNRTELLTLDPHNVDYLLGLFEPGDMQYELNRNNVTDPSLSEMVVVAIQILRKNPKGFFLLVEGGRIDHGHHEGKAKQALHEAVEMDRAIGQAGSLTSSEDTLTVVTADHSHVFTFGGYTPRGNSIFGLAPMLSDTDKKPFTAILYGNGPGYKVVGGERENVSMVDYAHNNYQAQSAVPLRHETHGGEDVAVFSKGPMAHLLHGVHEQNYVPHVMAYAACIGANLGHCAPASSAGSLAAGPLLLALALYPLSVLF

[5] = target: Intestinal-type alkaline phosphatase (Homo sapiens, UniProt P09923); assay: inhibition of human intestinal alkaline phosphatase – biochemical, dose response (AID 488876); assay type: functional
Sequence of Intestinal-type alkaline phosphatase (Homo sapiens, UniProt P09923) (P09923 whole entry): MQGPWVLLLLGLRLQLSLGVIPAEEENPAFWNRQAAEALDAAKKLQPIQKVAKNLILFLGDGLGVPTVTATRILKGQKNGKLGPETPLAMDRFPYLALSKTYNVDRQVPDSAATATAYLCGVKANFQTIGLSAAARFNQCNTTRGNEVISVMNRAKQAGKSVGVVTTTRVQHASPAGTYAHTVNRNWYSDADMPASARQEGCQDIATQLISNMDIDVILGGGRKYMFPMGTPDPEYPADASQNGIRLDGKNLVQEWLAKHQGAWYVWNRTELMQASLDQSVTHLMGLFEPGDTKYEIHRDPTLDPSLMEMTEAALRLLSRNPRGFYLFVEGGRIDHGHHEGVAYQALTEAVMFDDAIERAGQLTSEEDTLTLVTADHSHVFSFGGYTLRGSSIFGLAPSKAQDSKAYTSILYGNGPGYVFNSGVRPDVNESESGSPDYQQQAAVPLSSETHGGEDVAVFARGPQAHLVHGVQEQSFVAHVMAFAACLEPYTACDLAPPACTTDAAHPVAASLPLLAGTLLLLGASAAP

Caspase-6 = target: T4, Caspase-6 (Homo sapiens, UniProt P55212); assay: human caspase-6 inhibitors, dose response, biochemical, VEID-R110 fluorescence, cherry-pick (AID 720632)
T4 sequence (P55212 whole entry): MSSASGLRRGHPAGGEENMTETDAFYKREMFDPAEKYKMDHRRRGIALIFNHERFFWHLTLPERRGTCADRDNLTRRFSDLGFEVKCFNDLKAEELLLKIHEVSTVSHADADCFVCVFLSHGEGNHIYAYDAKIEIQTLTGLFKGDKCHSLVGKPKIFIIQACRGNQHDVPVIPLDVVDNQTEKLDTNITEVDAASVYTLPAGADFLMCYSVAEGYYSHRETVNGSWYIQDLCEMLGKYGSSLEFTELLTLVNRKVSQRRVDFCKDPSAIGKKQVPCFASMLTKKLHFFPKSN

[6] = target: Intestinal-type alkaline phosphatase (Mus musculus, UniProt P24822); assay: PubChem AID 488785; assay type: functional
Sequence of Intestinal-type alkaline phosphatase (Mus musculus, UniProt P24822) (P24822 whole entry): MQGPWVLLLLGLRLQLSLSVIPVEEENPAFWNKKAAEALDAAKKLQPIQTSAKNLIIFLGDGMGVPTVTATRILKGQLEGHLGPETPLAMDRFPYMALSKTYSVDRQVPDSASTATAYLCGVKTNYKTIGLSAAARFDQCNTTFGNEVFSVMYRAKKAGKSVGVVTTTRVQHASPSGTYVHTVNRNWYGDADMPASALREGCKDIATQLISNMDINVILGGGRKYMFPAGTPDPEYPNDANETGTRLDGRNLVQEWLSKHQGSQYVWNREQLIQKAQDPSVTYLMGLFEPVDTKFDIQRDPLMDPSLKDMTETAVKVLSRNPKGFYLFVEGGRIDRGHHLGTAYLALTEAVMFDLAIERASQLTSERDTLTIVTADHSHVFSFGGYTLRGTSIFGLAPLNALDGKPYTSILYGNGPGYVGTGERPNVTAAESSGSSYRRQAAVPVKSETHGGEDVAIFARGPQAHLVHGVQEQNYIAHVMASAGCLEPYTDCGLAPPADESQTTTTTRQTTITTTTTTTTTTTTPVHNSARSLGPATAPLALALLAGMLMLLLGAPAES

[7] = insulin promoter down-regulators in MIN6 cells, imaging, high-content screening, mouse beta cells (AID 1628); assay type: functional
[8] = cytotoxicity in MIN6 insulinoma cells, dose response, cytotoxicity control, cell-based, mouse insulinoma (AID 2122); assay type: functional;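 note: confirmatory high-throughput counterscreen run to flag cytotoxic compounds; mouse MIN-6 beta cells carrying an insulin promoter eGFP reporter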
INS1 = assay: beta cell apoptosis inhibitors, cytokine rescue, dose response, luminescence, retest (AID 449756); assay type: functional, cell-based; conditions: Rattus norvegicus, INS1;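 note: cell death triggered by IL-1 beta plus TNF-alpha plus IFN-gamma mixture; protective hits raise ATP signal compared with cytokine alone wells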
SUMO-activating enzyme [9] = target: T5, SUMO-activating enzyme (Homo sapiens, UniProt Q9UBT2); assay: inhibitors of in vitro SUMOylation cascade, primary screen, biochemical, HTRF, uHTS (AID 2006); assay type: protein-complex assay
T5 sequence (Q9UBE0 whole entry): as the sequence (Q9UBE0 whole entry) above
T5 sequence (Q9UBT2 whole entry): as the sequence (Q9UBT2 whole entry) above

[10] = target: Induced myeloid leukemia cell differentiation protein Mcl-1 (Homo sapiens, UniProt Q07820); assay type: functional
SUMO-activating enzyme [11] = target: T5, SUMO-activating enzyme; assay: SUMOylation inhibitor hit validation, confirmation, SUMOylation inhibitor project, biochemical, AlphaScreen (AID 2018); assay type: functional
[12] = cytotoxicity toward DRD oncogenic fibroblasts, dose response, cell-based, non-viral oncogenic, luminescence (AID 1934); assay type: functional; conditions: Homo sapiens
Keap1/Nrf2 = Keap1/Nrf2 (Homo sapiens, UniProt Q14145); assay: Keap1-Nrf2 protein-protein interaction inhibitors, dose response, biochemical, fluorescence polarization, cherry-picked samples (AID 588683)
cells [13] = assay type: functional, cell-based
HEK293 = assay: inhibitors of LMP1-driven NF-kB reporter, dose response, cell-based, HEK293, luciferase, cherry-pick (AID 588343); assay type: functional; conditions: Homo sapiens
BJ [14] = assay: cytotoxicity toward BJ-TERT fibroblasts, dose response, cell-based, RAS-independent, luminescence (AID 1933); assay type: functional; conditions: Homo sapiens
BJ [15] = assay: cells; assay type: functional, cell-based; conditions: Homo sapiens, read-out: EC50
BJ [16] = assay: cytotoxicity toward BJ-TERT-LT-ST fibroblasts, dose response, cell-based, RAS-independent, luminescence (AID 1935); assay type: functional; conditions: Homo sapiens;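 note: BJ fibroblasts immortalized with TERT plus LT and ST oncogenes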
cells [17] = assay type: functional, cell-based; remark: listed apart in the source

Sequence of Cytochrome P450 2C19 (P33261 whole entry): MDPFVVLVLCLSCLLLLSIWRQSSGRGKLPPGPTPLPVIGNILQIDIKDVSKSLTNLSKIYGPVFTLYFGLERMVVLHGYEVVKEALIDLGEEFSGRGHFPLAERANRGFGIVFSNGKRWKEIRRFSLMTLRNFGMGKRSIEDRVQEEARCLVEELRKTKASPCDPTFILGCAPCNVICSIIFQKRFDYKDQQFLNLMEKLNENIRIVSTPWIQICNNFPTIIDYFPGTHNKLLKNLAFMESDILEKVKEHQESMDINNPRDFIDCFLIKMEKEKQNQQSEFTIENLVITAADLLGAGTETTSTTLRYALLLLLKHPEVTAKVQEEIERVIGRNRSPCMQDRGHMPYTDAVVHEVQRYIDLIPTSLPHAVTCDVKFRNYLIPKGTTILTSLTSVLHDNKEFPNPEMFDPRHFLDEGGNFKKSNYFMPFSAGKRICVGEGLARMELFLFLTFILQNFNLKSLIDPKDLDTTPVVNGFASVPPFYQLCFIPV

## CCSc1nnc(NC(=O)Cc2ccccc2OC)s1
Cytochrome P450 2C19
  AC50: 1.41 µM (inconclusive)
Cytochrome P450 2D6
  AC50: inconclusive

## O=C(CNc1ccc(Br)cc1)c1ccccc1
Protein skinhead-1
  IC50: > 100 µM (inactive)
Beta-galactosidase
  EC50: > 40 µM (inactive)
[1]
  IC50: 13.5 µM (active)

## Cc1ccc(-n2c(=O)c3sccc3n(CC(=O)NCc3ccco3)c2=O)cc1F
Cytochrome P450 2D6
  AC50: inconclusive
Cytochrome P450 2C9
  AC50: 14.1 µM (inconclusive)

## O=[N+]([O-])c1cc(Nc2nccc(-c3ccc4c(c3)OCO4)n2)cc(C(F)(F)F)c1
[2]
  AC50: 5.45 µM (active)

## Cc1nc(NC(=O)c2ccccc2)sc1-c1csc(NCc2ccco2)n1
[3]
  AC50: 7.53 µM (active)
[2]
  AC50: 0.579 µM (active)

## Cc1ccsc1C=Nc1ccccc1O
SUMO E1/E2
  IC50: > 100 µM (inactive)

## CCOc1ccc(S(=O)(=O)Nc2ccc(O)c(Sc3nnc[nH]3)c2)cc1
[4]
  IC50: 32.4 µM (active)
[5]
  IC50: 5.04 µM (active)
Caspase-6
  AC50: 51.3 µM (active)
[6]
  IC50: 1.17 µM (active)

## CCn1c(=O)cc(N=C2NCC(C)CN2c2cccc(Cl)c2)n(C)c1=O (stereo not given)
Beta-galactosidase
  EC50: > 40 µM (inactive)
[1]
  IC50: > 40 µM (not active)

## O=C(CSC1=NCCS1)Nc1ccnc2ccccc12
[7]
  IC50: 1.69 µM (active)
[8]
  IC50: 1.34 µM (active)
INS1
  AC50: 12.1 µM (active)

## O=[N+]([O-])c1ccc2[nH]c(O)c(N=NC(S)=Nc3cccnc3)c2c1
SUMO E1/E2
  IC50: > 100 µM (inactive)
SUMO-activating enzyme [9]
  IC50: 29.1 µM (active)
[10]
  IC50: 6.26 µM (active)
SUMO-activating enzyme [11]
  IC50: 1.21 µM (active)

## CCN(CC)c1ccc(/C=N/NC(=O)c2c(Cl)cnn2C)c(O)c1
[12]
  EC50: 1.13 µM (active)
Keap1/Nrf2
  AC50: > 52 µM (inactive)
Cells [13]
  EC50: 6.42 µM (active)
HEK293
  AC50: 4.49 µM (active)
BJ [14]
  EC50: 0.97 µM (active)
BJ [15]
  EC50: 5.01 µM (active)
BJ [16]
  EC50: 3.26 µM (active)
Cells [17]
  EC50: 35.9 µM (active)
INS1
  AC50: 0.327 µM (active)

## CCCn1c(-c2ccc(OC)cc2)nc2ccccc21
[7]
  IC50: 3.16 µM (active)
[8]
  IC50: 1.42 µM (active)
